Drawing on ChEMBL document CHEMBL5625208, “Tumor selective self-assembled nanomicelles of carbohydrate-epothilone B conjugate for targeted chemotherapy” (Eur J Med Chem, 2023), this text covers Activity, Stability and Drug metabolism for 4 compounds.

Molecules are shown by their SMILES. The source made the active and inactive calls. No cut-off for these calls is given here.

Data set [1] has as its system HepG2. Briefly: Antiproliferative activity against human HepG2 cells assessed as reduction in cell viability after 72 hrs by MTT assay. It is filed as functional, cell-based.
Data set [2] concerns NCI-H460. Briefly: Antiproliferative activity against human NCI-H460 cells assessed as reduction in cell viability after 72 hrs by MTT assay. In kind it is functional, cell-based.
Data set [3] deals with MCF7. Briefly: Antiproliferative activity against human MCF7 cells assessed as reduction in cell viability after 72 hrs by MTT assay. In kind it is functional, cell-based. For orientation: Tetrazolium dyes change colour on reduction, which living cells bring about.
The test system of data set [4] is NCI-460/Taxol. Briefly: Antiproliferative activity against human NCI-460/taxol cells assessed as reduction in cell viability after 72 hrs by MTT assay. In kind it is functional, cell-based.
Data set [5] deals with MCF7. Briefly: Antiproliferative activity against human MCF7 cells assessed as reduction in cell viability at 1 to 1000 nM preincubated for with NEM for 1 hr followed by compound addition and measured after 72 hrs by MTT assay. The following applies: dose 1-1000 nM. It is filed as functional, cell-based.
Data set [6] can be described thus: Toxicity in mouse xenografted with human MCF7 cells assessed as reduction in body weight at 3 mg/kg, ip administered every 3 days for 3 times and measured after 14 days. In kind it is organism-based. The following applies: in vivo, 336 h, time 14 day. In general terms: In xenograft studies the graft and the host belong to different species.
Data set [7] in a line: Toxicity in mouse xenografted with human MCF7 cells assessed as animal death at 3 mg/kg, ip administered every 3 days for 3 times and measured on day 8. In kind it is organism-based. Conditions: in vivo, 192 h, time 8 day.
Data set [8] relates to MCF7. Briefly: Antitumor activity against human MCF7 cells xenografted in mouse assessed as appearance of intracellular space dilatation in tumor cells at 1.5 to 3 mg/kg, ip administered every 3 days for 3 times measured after 14 days by H and E staining based assay. In kind it is functional, organism-based. The following applies: dose 1.5-3 mg/kg, time 14.0 day.
Data set [9] concerns MCF7. Briefly: Antitumor activity against human MCF7 cells xenografted in mouse assessed as appearance of small cavities in tumor cells at 1.5 to 3 mg/kg, ip administered every 3 days for 3 times measured after 14 days by H and E staining based assay. It is filed as functional, organism-based. The following applies: dose 1.5-3 mg/kg, time 14.0 day.
Data set [10] has as its system MCF7. Briefly: Antitumor activity against human MCF7 cells xenografted in mouse assessed as reduction in PCNA positive cells at 1.5 to 3 mg/kg, ip administered every 3 days for 3 times measured after 14 days by H and E staining based assay. Conditions: dose 1.5-3 mg/kg, time 14.0 day. In kind it is functional, organism-based.
The subject of data set [11] is L02. Briefly: Cytotoxicity against human HL7702 cells incubated for 72 hrs by MTT assay. Conditions: l02, 72 h. It is filed as toxicity, cell-based.
Data set [12] relates to BEAS-2B. Briefly: Cytotoxicity against human BEAS-2B cells incubated for 72 hrs by MTT assay. It is filed as toxicity, cell-based.
Data set [13] relates to MCF7. Briefly: Antiproliferative activity against human MCF7 cells assessed as reduction in cell viability preincubated for with NEM for 1 hr followed by compound addition by xCELLigence real time analysis. In kind it is functional, cell-based.
The subject of data set [14] is MCF7. Briefly: Antiproliferative activity against human MCF7 cells assessed as reduction in cell viability at 1 to 1000 nM preincubated for with rhamnose for 1 hr followed by compound addition and measured after 72 hrs by MTT assay. It is filed as functional, cell-based. The following applies: dose 1-1000 nM.
Data set [15] in a line: Stability in mouse plasma. It is filed as ADME, cell-free.
Data set [16] concerns MCF7. Briefly: Antitumor activity against human MCF7 cells xenografted in mouse assessed as reduction in tumor growth at 3.2 to 6.4 mg/kg, ip administered every 3 days for 3 times and measured after 14 days. It is filed as functional, organism-based. Conditions: dose 3.2-6.4 mg/kg, time 14.0 day.
The test system of data set [17] is MCF7. Briefly: Antitumor activity against human MCF7 cells xenografted in mouse assessed as reduction in tumor weight at 3.2 to 6.4 mg/kg, ip administered every 3 days for 3 times and measured after 14 days. Conditions: dose 3.2-6.4 mg/kg, time 14.0 day. It is filed as functional, organism-based.
Data set [18] is described as follows: Toxicity in mouse xenografted with human MCF7 cells at 3 mg/kg, ip administered every 3 days for 3 times and measured after 14 days. In kind it is organism-based. Conditions: in vivo, 336 h, time 14 day.
Data set [19] in a line: Toxicity in mouse xenografted with human MCF7 cells assessed as animal death at 3.2 mg/kg, ip administered every 3 days for 3 times and measured after 14 days. In kind it is organism-based. Conditions: in vivo, 336 h, time 14 day.
The nature of data set [20]: Toxicity in mouse xenografted with human MCF7 cells assessed as change in body weight at 3.2 mg/kg, ip administered every 3 days for 3 times and measured after 14 days. In kind it is organism-based. The following applies: in vivo, 336 h, time 14 day.
For data set [21], the system named is MCF7. Briefly: Antitumor activity against human MCF7 cells xenografted in mouse assessed as appearance of intracellular space dilatation in tumor cells at 3.2 to 6.4 mg/kg, ip administered every 3 days for 3 times measured after 14 days by H and E staining based assay. In kind it is functional, organism-based. Conditions: dose 3.2-6.4 mg/kg, time 14.0 day.

The subject of data set [22] is MCF7. Briefly: Antitumor activity against human MCF7 cells xenografted in mouse assessed as appearance of small cavities in tumor cells at 3.2 to 6.4 mg/kg, ip administered every 3 days for 3 times measured after 14 days by H and E staining based assay. It is filed as functional, organism-based. Conditions: dose 3.2-6.4 mg/kg, time 14.0 day.
Data set [23] has as its system MCF7. Briefly: Antitumor activity against human MCF7 cells xenografted in mouse assessed as reduction in PCNA positive cells at 3.2 to 6.4 mg/kg, ip administered every 3 days for 3 times measured after 14 days by H and E staining based assay. In kind it is functional, organism-based. The following applies: dose 3.2-6.4 mg/kg, time 14.0 day.
Data set [24] can be described thus: Toxicity in mouse xenografted with human MCF7 cells assessed as spleen damage at 3.2 mg/kg, ip administered every 3 days for 3 times and measured after 14 days. In kind it is organism-based. Conditions: in vivo, 336 h, time 14 day.
Data set [25] is described as follows: Toxicity in mouse xenografted with human MCF7 cells assessed as kidney damage at 3.2 mg/kg, ip administered every 3 days for 3 times and measured after 14 days. In kind it is organism-based. Conditions: in vivo, 336 h, time 14 day.
A short description of data set [26]: Prodrug release in DTT at pH 7.4 after 12 hrs by HPLC analysis. It is filed as ADME. The following applies: pH 7.4, 12 h.
Data set [27] is described as follows: Prodrug release in DTT at pH 7.4 assessed as Epothilone B release after 12 hrs by HPLC analysis. In kind it is ADME. Conditions: pH 7.4, 12 h.
Data set [28] can be described thus: Prodrug release in PBS at pH 7.4 assessed as Epothilone B release in presence of different concentrations of DTT by HPLC analysis. It is filed as ADME. Conditions: buffer.

For `C/C(=C\c1csc(C)n1)[C@@H]1C[C@@H]2O[C@]2(C)CCC[C@H](C)[C@H](OC(=O)OCCSSCCOCc2cn(CCOCCOCCOCCO[C@@H]3O[C@H](CO)[C@@H](O[C@@H]4O[C@@H](C)[C@H](O)[C@@H](O)[C@H]4O)[C@H](O)[C@H]3O[C@@H]3O[C@@H](C)[C@H](O)[C@@H](O)[C@H]3O)nn2)[C@@H](C)C(=O)C(C)(C)[C@@H](O)CC(=O)O1`, the outcome in [1], in [2], in data set [3] and in data set [4] was Active.

Turning to `C/C(=C\c1csc(C)n1)[C@@H]1C[C@@H]2O[C@]2(C)CCC[C@H](C)[C@H](O)[C@@H](C)C(=O)C(C)(C)[C@@H](O)CC(=O)O1` [PATUPILONE], the result in [5], in data set [8], in data set [9] and in [10] was Active. Besides, the Activity result in data set [6] and in data set [7] was “Toxic” throughout.

On to `C/C(=C\c1csc(C)n1)[C@@H]1C[C@@H]2O[C@]2(C)CCC[C@H](C)[C@H](OC(=O)OCCSSCCOCc2cn(CCOCCOCCOCCO[C@@H]3O[C@@H](C)[C@H](O)[C@@H](O)[C@H]3O)nn2)[C@@H](C)C(=O)C(C)(C)[C@@H](O)CC(=O)O1`, for which the outcome in data set [1], in [2], in data set [3], in [4], in data set [16] and in data set [17] was Active. Moreover, the result in [21], in data set [22] and in data set [23] was Active. Also, the Activity result in data set [11], in data set [12], in data set [6], in [18], in data set [19] and in data set [20] was “Non-Toxic” in each case. Besides, the Activity entry in [24] and in [25] was “Non-Toxic” throughout. Besides, the result in data set [13], in data set [5] and in data set [14] was inactive. The Stability entry in data set [15] was “Stable”. The Drug metabolism result in data set [26] is recorded as “Active”; in data set [27] it was “Active”; in [28], “Not Active”.

Turning to `C/C(=C\c1csc(C)n1)[C@@H]1C[C@@H]2O[C@]2(C)CCC[C@H](C)[C@H](OC(=O)Cc2ccccc2SSCCC(=O)NCc2cn(CCOCCOCCOCCO[C@@H]3O[C@@H](C)[C@H](O)[C@@H](O)[C@H]3O)nn2)[C@@H](C)C(=O)C(C)(C)[C@@H](O)CC(=O)O1`, the Drug metabolism entry is “Active” in [26] and “Not Active” in [27].
